Assay results as given in ChEMBL document CHEMBL3272169, “10-Hydroxy-4-methyl-2,3,4,5,6,7-hexahydro-1,6-methano-1H-4-benzazonine derivatives (homobenzomorphans) as analgesics” (J Med Chem, 1976).
Counter-ions that a name gives are not always drawn.

Test system: Mus musculus
Experiment: Analgesic Activity in sc dosed albino dd mouse by tail pressure stimuli method
Type: functional
Details: not given

Compound	ED50
CC(O)C(=O)O.CN1CCC2CC(Cc3ccccc32)C1 (stereo unspecified)	53.1 µmol/kg
Br.CN1CC[C@@H]2CC(Cc3ccc(O)cc32)C1	10.7 µmol/kg
CC(O)C(=O)O.C[C@H]1C2Cc3ccc(O)cc3[C@@H]1CCN(C)C2	9.9 µmol/kg
CC(O)C(=O)O.C[C@@H]1C2Cc3ccc(O)cc3[C@@H]1CCN(C)C2	8 µmol/kg
CC(O)C(=O)O.CN1CC[C@]2(C)CC(Cc3ccc(O)cc32)C1	7 µmol/kg
CC(O)C(=O)O.C[C@H]1C2Cc3ccc(O)cc3[C@]1(C)CCN(C)C2	5.2 µmol/kg
Br.C[C@@H]1C2Cc3ccc(O)cc3[C@]1(C)CCN(C)C2	4.1 µmol/kg
COc1ccc2c3c1O[C@H]1[C@@H](O)C=C[C@H]4[C@@H](C2)N(C)CC[C@@]341 [CODEINE PHOSPHATE]	30.7 µmol/kg
CN1CC[C@]23c4c5ccc(O)c4O[C@H]2[C@@H](O)C=C[C@H]3[C@H]1C5 [MORPHINE HYDROCHLORIDE]	4.4 µmol/kg

Test system: not listed separately
Experiment: Acute toxicity in iv dosed albino dd mouse
Type: organism-based
Details: in vivo

Compound	LD50
CC(O)C(=O)O.CN1CCC2CC(Cc3ccccc32)C1 (stereo unspecified)	106 µmol/kg
Br.CN1CC[C@@H]2CC(Cc3ccc(O)cc32)C1	121 µmol/kg
CC(O)C(=O)O.C[C@H]1C2Cc3ccc(O)cc3[C@@H]1CCN(C)C2	184 µmol/kg
CC(O)C(=O)O.C[C@@H]1C2Cc3ccc(O)cc3[C@@H]1CCN(C)C2	153 µmol/kg
CC(O)C(=O)O.CN1CC[C@]2(C)CC(Cc3ccc(O)cc32)C1	67 µmol/kg
CC(O)C(=O)O.C[C@H]1C2Cc3ccc(O)cc3[C@]1(C)CCN(C)C2	126 µmol/kg
Br.C[C@@H]1C2Cc3ccc(O)cc3[C@]1(C)CCN(C)C2	113 µmol/kg
